Measured values from publication PMC9391460, “Biophysical and pharmacokinetic characterization of a small-molecule inhibitor of RUNX1/ETO tetramerization with anti-leukemic effects” (Scientific Reports, 2022).
Like-named read-outs stand apart in the source and are kept apart here.

Columns and labels:
[1] = Peff in cm sec-1 from PAMPA assays; ref Bennion, Be [13]; cited from earlier work
NHR2 = target: T1, NHR2 (Homo sapiens, UniProt Q06455); test: Isothermal titration calorimetry (ITC) of HEB fragment with NHR2; conditions: 25°C, one-site binding model
T1 construct: The N-terminal residues from Q485 to D495, T519, and the C-terminal residues from Y544 to K552; 6His (N, cleaved yes); SUMO (N, cleaved yes); made in house; host or cells: E. coli Rosetta (DE3)pLysS
T1 sequence (Q06455 337-404): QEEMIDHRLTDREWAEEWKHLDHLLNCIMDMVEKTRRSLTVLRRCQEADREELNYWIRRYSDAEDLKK
Description: The NHR2 domain was overexpressed and purified, and the resulting material yielded homogeneous, monodisperse species in solution. The sample was homogenous as analyzed by size exclusion chromatography (SEC) (Fig. 2A), SDS-PAGE (Fig. S1), and dynamic light scattering (DLS) (Fig. S3). The oligomeric state of purified NHR2 was assessed by analytical ultracentrifugation (AUC) (Fig. S4). The sedimentation profiles of NHR2 show a single major species with a sedimentation coefficient (S value) of 3.07, which corresponds to the molecular weight of 37.3 kDa. This value is in agreement with the calculated molecular weight of an NHR2 tetramer of 34.2 kDa. […] The weight percent contribution of the tetramer in 35 µM of NHR2 is 94% as obtained by integration of the continuous sedimentation coefficient distribution function. To check the function of the purified NHR2, we performed isothermal titration calorimetry (ITC) with the HEB fragment of E proteins (HEB (176–200)).
Figure S5. NHR2 interaction with E proteins (HEB (176-200)) by isothermal titration calorimetry (ITC). Titration of
600 μM HEB (176-200) peptide into a 53 μM NHR2 solution and resulting heat change are shown in the upper panel. The
ITC measurements were performed at 25°C using a MicroCal ITC200 (Malvern Instruments Ltd., United Kingdom)
calorimeter. Buffer conditions were 50 mM sodium phosphate, 50 mM sodium chloride pH 8. […]

Hepatocyte stability = assay type: in vitro ADME; conditions: mouse hepatocytes
Description: Working solutions of the test and reference items were diluted from the stock solutions in the
incubation medium to reach 10-fold concentrated starting solutions. The final test
concentrations were 5 µM with a solvent content of 0.5% DMSO or 1% ACN in all test item
and reference item incubations, respectively. 7.44 compound was dissolved 20 mM in DMSO
Primary hepatocytes from CD-1 mice (pooled, male) were thawed
according to the instructions of the manufacturer. The incubation samples were composed of
0.2 x 10^6 cells/well in 225 µL incubation medium and 25 µL test item solution (50 µM in
incubation medium), resulting in a final start concentration of 5 µM. Samples were taken from
the suspension cultures after 0, 15, 30, 60, and 120 minutes of incubation and processed for LC-
MS analysis as described in Sample preparation section.
Positive control incubations were performed using 7-ethoxycoumarin as substrate. Metabolic
turnover rates were measured at 0 and 120 minutes of incubation. Aliquotes were taken from
the incubations for sample preparation and analysis. Hepatocyte enzyme activity was assessed
in terms of 7-ethoxycoumarin turnover, i.e., loss of 7-ethoxycoumarin.
Negative controls were performed to observe non-metabolic degradation processes; i.e. test
Negative control incubations were performed
in line with all experiments using incubation medium with test and reference item in the absence
of hepatocytes. Samples were taken from the incubations at 0 and 120 minutes and processed
as described below (in Sample preparation section).

[2] = Kinetic solubility in PBS; assay type: physicochemical; conditions: kinetic from dmso stock
Description: in a cut-off concentration of 200 µM and a final solvent content of 1% DMSO. The test
solutions (triplicates) were put on a filter plate and were shaken protected from light at 300 rpm
at room temperature for 1.5 hours, followed by centrifugation at 500 x g for 3 minutes. 200 µl
of the filtrate were mixed with 100 µl ACN containing the ISTD as described in Sample

Plasma stability = assay type: in vitro ADME; conditions: mouse plasma, 0–240 min, 37 °C
Description: (§1) For plasma stability assay, working solutions of the test and reference item were diluted f r o m the stock solutions in the appropriate solvent (Table S3) to reach working solutions of 50-fold […]
(§2) and propantheline (reference item for low plasma stability) were tested at a final concentration of 10 µM. The final solvent content in the test item incubations was 0.5% DMSO, while in the propantheline incubations, no organic solvent was added.
(§3) For chemical stability assay, working solutions of the test and reference items were diluted from the stock solutions in the appropriate solvent (Table S3) to reach working solutions of 50- […]
(§4) item and Omeprazole (reference item for low chemical stability) were tested at a final concentration of 10 µM. The final solvent content in the test item incubations was 0.5% DMSO.
(§5) For the hepatic stability assay, working solutions of the test and reference items were diluted from the stock solutions in the appropriate solvent (Table S3) to reach working solutions of a 200-fold higher strength than the intended final concentrations. In a second step, working solutions were further diluted in incubation medium to reach 10-fold concentrated starting

[3] = Chemical stability in PBS; assay type: physicochemical; conditions: pH 7.4, 0–4 h
Description: as §1, §2, §3, §4, §5

[4] = pKa value determination by 1H NMR; assay type: physicochemical
Description: Sodium 2,2-dimethyl-2-silapentane-5-sulfonate (DSS) was used for chemical shift referencing and calibrated to a zero ppm value in each case. […] Then the pKa was calculated by using the chemical shifts of the protonated and unprotonated forms at the respective pH and fitting to the Henderson-Hasselbalch equation[25] (Fig. 6B).
1D ^1H-NMR experiments were performed using 256 scans for each sample. ^1H chemical shift values were extracted for the reporter protons using TopSpin 3.2 (Bruker BioSpin). The pKa was calculated using the chemical shifts of the protonated and unprotonated forms and their corresponding mole fraction values applying the Henderson-Hasselbalch equation as explained by Gift et al.[25]. The data were processed and plotted with the Origin software (OriginLab Corporation, USA).

HEB 176-200 = target: T2, HEB 176-200 (Homo sapiens, UniProt Q99081); test: ITC
T2 chain: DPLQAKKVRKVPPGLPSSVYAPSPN

MST = target: the molecule itself; test: MST

## NC(=O)c1cc[n+](COC[n+]2ccccc2/C=N/O)cc1 [asoxime (HI-6), asoxime]
[1]
  log Peff/PAMPA P0-1: -11.16

## CN(C)CCCN1c2ccccc2Sc2ccc(Cl)cc21 [chlorpromazine]
[1]
  log Peff/PAMPA P0-1: -5.26

## HEB (176–200): HEB fragment of E proteins, known to interact with the NHR2 domain (DPLQAKKVRKVPPGLPSSVYAPSPN; UniProt Q99081 176-200, looked up, fragment)
NHR2
  binding enthalpy ΔH: -62.8 ± 25 kJ/mol
NHR2; read-out: dissociation constant KD
  Kd: 30 ± 4 µM

## CC(=O)[C@H]1CC[C@H]2[C@@H]3CCC4=CC(=O)CC[C@]4(C)[C@H]3CC[C@]12C [progesterone]
[1]
  log Peff/PAMPA P0-1: -4.94

## Cn1c(=O)c2[nH]cnc2n(C)c1=O [theophylline]
[1]
  log Peff/PAMPA P0-1: -5.91

## O=C(CC(C(=O)O)c1ccc2c(c1)OCO2)c1ccc2c(c1)OCO2 (stereo not drawn) [7.44]
Hepatocyte stability; male, CD-1, primary hepatocytes (pooled, suspension), read-out: Hepatocyte stability, intrinsic clearance rate (CLint)
  hepatocyte CLint at 5 µM: 2.5 µL/min/1e6 cells
Hepatocyte stability; male, CD-1, primary hepatocytes (pooled, suspension), read-out: half-life time
  half-life at 5 µM: > 2 h
Hepatocyte stability; after 120 min
  compound remaining: 73.8%
[2]; 99% PBS, 1% DMSO, pH 7.4, aqueous buffer
  solubility kinetic at […]: 177 ± 8 µM
[2]; PBS with 1% DMSO, aqueous buffer, PBS, pH 7.4, read-out: Kinetic solubility
  solubility kinetic at […]: 0.06 mg/mL
Plasma stability
  Plasma stability: No degradation
[3]
  Chemical stability in PBS: No degradation
[4]; sodium phosphate buffer with NaCl and DMSO-d6, reporter proton H2, read-out: pKa of the carboxylic group
  pKa: 3.99 ± 0.01
[4]; sodium phosphate buffer with NaCl and DMSO-d6, reporter proton H3, read-out: pKa of the carboxylic group
  pKa: 3.93 ± 0.01
[4]; sodium phosphate buffer with NaCl and DMSO-d6, summary value, read-out: pKa
  pKa: ~3.9

## CN(C)CCCN1c2ccccc2Sc2ccccc21 [promazine]
[1]
  log Peff/PAMPA P0-1: -4.88

## O/N=C/c1cc[n+](C[n+]2ccc(/C=N/O)cc2)cc1 [methoxime (MMB4), methoxime]
[1]
  log Peff/PAMPA P0-1: -9.25

## C[n+]1ccccc1/C=N/O [pralidoxime (P2-PAM), pralidoxime]
[1]
  log Peff/PAMPA P0-1: -7.52

B1: NHR2 domain of RUNX1/ETO 485-552 (protein)
chain: KMERTVAEAKRQAAEDALAVINQQEDSSESCWNCGRKASETCSGCNTARYCGSFCQHKDWEKHHHICG
HEB 176-200
  Kd: 30 µM

B2: NHR2 domain of RUNX1/ETO (dimer) 485-552 (protein)
chain: KMERTVAEAKRQAAEDALAVINQQEDSSESCWNCGRKASETCSGCNTARYCGSFCQHKDWEKHHHICG
MST
  Kd: 1.6 µM
